From patent US9051553B2, “Poly(ADP-ribose) polymerase genes” (AbbVie Deutschland GmbH & Co. KG, priority 1998, dated 2015)

Molecular target: T1, PARP3 (Homo sapiens, UniProt Q9Y6F1)
T1 construct: made in house; host or cells: insect cells (Sf9 or High-Five), baculovirus, pFASTBAC-1
T1 sequence (Q9Y6F1 1-533): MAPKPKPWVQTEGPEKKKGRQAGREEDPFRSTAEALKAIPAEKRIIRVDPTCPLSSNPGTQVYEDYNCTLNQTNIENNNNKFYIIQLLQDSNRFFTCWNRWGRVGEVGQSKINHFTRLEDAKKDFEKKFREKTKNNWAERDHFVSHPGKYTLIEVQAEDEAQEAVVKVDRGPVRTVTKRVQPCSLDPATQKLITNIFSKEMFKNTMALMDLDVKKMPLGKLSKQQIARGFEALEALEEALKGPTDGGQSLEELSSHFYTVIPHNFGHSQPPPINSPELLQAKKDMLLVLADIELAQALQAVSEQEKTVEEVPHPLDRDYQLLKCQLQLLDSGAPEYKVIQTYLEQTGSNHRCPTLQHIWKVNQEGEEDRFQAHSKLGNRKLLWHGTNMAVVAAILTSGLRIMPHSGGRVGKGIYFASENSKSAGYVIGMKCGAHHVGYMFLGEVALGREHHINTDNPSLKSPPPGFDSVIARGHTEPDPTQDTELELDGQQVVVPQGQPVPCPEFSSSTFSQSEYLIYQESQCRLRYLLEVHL
Test: PARP inhibition assay, selectivity PARP2 versus PARP3
Assay type: biochemical
Details: PARP2 compared with PARP3 as printed
Experimental: Assay Systems for Determining the Activity of PARP2 and PARP3 and the Inhibitory Action of Effectors on PARP1, PARP2 and PARP3
Various concentrations were used to construct a dose-effect plot to determine the Ki value of an inhibitor. Values are obtained in triplicate for a particular inhibitor concentration. Arithmetic means are determined using Microsoft© Excel. The IC50 is determined using the Microcal© Origin Software (Vers. 5.0) (“Sigmoidal Fit”). Conversion of the IC50 value is calculated in this way into Ki values took place by using “calibration inhibitors”.
The “calibration inhibitors” were also measured in each analysis. The Ki values of the “calibration inhibitors” were determined in the same assay system by analysis of the Dixon diagram in the manner familiar to the skilled worker.
Measurement was then possible after 30 minutes (up to 4 hours). The measurement took place in a “discovery HTRF microplate analyzer” (Canberra Packard Instruments). The Ki values were calculated as described for the ELISA.

With O=c1[nH]nc(CNc2ccc(O)cc2)c2ccccc12 [4-(N-(4-hydroxyphe-nyl)aminomethyl)-(2H)-dihydrophthalazine-1-one] as the molecule, how does the “selectivity for PARP2 over PARP3” value read?
The value was “eight times”.
